Data reported in patent US12454510B2, “Isophthalamide compound and use thereof” (METISA BIOTECHNOLOGY CO., LTD, priority 2019, dated 2025).
Where two headings read alike, the source gives them in different places.

Legend:
Type in all cases: in vivo
[1] = test system: Leucania separata; assay: Insecticidal activity against Leucania separata, airbrush spray on corn leaf sections; details: Mythimna separata, 72 h; dose 0.05 mg/L, 3 days after the treatment, 3rd instar larvae; read-out: lethality rate against Leucania separata
Protocol: (§1) After being dissolved in a mixed solvent of acetone/methanol (1:1), the test compound was diluted with water containing 0.1% (wt) Tween 80 to the desired concentration.
(§2) With Leucania separata, Plutella xylostella, and Chilo suppressalis as targets, airbrush spray method was used for the determination of the insecticidal activity.
(§3) Determination method: Corn leaves were cut into 2 cm leaf sections, and Airbrush spray treatment was carried out at a pressure of 10 psi (approximately 0.7 kg/cm^2) on the front and back sides of each leaf section, with a spray volume of the compound to be tested of 0.5 ml. After drying in the shade, 10 of 3rd instar larvae were introduced for each treatment, and each treatment was repeated 3 times. After the treatment, it was placed in an observation room at 25° C. and a relative humidity of 60-70%, and 3 days after the treatment, the number of surviving insects was investigated, and the mortality rate was calculated.

[2] = test system: Plutella xylostella; assay: Insecticidal activity against Plutella xylostella, airbrush spray on cabbage leaf discs; details: foliar, 72 h; for pest or weed control at 5 µg/mL: 5 mg/L, Table 5, read-out: Lethality rate (%, 3 days after the treatment) 5 mg/L
Protocol: as §1, §2
as §3, with “Cabbage” for “Corn”, “punched” for “cut”, “into leaf discs with a diameter of” for “into”, “with a puncher,” for “leaf sections,”, “disc,” for “section,”, “times for.” for “times.”

[3] = test system: Chilo suppressalis; assay: Insecticidal activity against Chilo suppressalis, sprayed Oryza sativa seedlings/stalks; details: for pest or weed control at 0.25 µg/mL / pest or weed control at 0.5 µg/mL / pest or weed control at 1 µg/mL: Chilo suppressalis, 72 h, 3 days after the treatment, 3rd instar larvae, read-out: lethality rate against Chilo suppressalis; for pest or weed control at 0.25 µg/mL: dose 0.25 mg/L; for pest or weed control at 0.5 µg/mL: dose 0.5 mg/L; for pest or weed control at 1 µg/mL: dose 1 mg/L
Protocol: as §1, §2
Determination method: 1) Preparation of Oryza sativa seedlings: Oryza sativa was cultivated in a constant temperature room (a temperature of 26-28V, a relative humidity of about 60-80%, and a light illumination of 16 hL:8 hD) in a small plastic cup with a diameter of 4.5 cm and a height of 4 cm, and when the Oryza sativa grew up to the 4-5 leaf stage, robust and consistent Oryza sativa seedlings were selected for chemical treatment, and 3 repetitions were performed for each treatment. 2) Preparation for test insects: Chilo suppressalis at 3rd instar larvae were raised continuously indoors. 3) The Oryza sativa stems were sprayed and insects were introduced. Spraying was performed uniformly on the whole plant of the Oryza sativa seedlings, with 15 ml of compound solution for each treatment. The blank control was treated first, and then the above operations were repeated in the order of the test concentration from low to high. After the Oryza sativa seedlings were sprayed, they were placed in a cool place to dry the liquid, and about 5 cm of stalks at the base of the stems were cut and fed to the test insects. A glass petri dish with a diameter of 90 mm was placed with filter paper at the bottom of the dish, and then was moisturized by adding water. After that, about 5 rice stalks and 10 larvae were placed in each dish, and the petri dish was sealed with a non-woven fabric and placed in a constant temperature room for cultivation. The number of remaining live insects was investigated 3 days after the treatment.

[4] = dose 0.05 mg/L, 3 days after the treatment, 3rd instar larvae, read-out: lethality rate against Plutella xylostella
[5] = dose 0.5 mg/L, 3 days after the treatment, 3rd instar larvae, read-out: lethality rate against Plutella xylostella
[6] = dose 1 mg/L, 3 days after the treatment, 3rd instar larvae, read-out: lethality rate against Plutella xylostella
[7] = 0.05 mg/L, parallel comparison test, Table 5, read-out: Lethality rate (%, 3 days after the treatment) 0.05 mg/L
[8] = 0.5 mg/L, parallel comparison test, Table 5, read-out: Lethality rate (%, 3 days after the treatment) 0.5 mg/L
[9] = 1 mg/L, parallel comparison test, Table 5, read-out: Lethality rate (%, 3 days after the treatment) 1 mg/L
[10] = parallel comparison test, Table 6

Row | Structure (SMILES) | pest or weed control at 0.05 µg/mL [1] [%] | pest or weed control at 1 µg/mL [2, 6] [%] | pest or weed control at 1 µg/mL [3] [%] | pest or weed control at 0.05 µg/mL [2, 7] [%] | pest or weed control at 0.5 µg/mL [2, 8] [%] | pest or weed control at 1 µg/mL [2, 9] [%] | pest or weed control at 5 µg/mL ([2]; parallel comparison test) [%] | also measured
1 | N#CCN(C(=O)c1ccc(F)nc1)c1cccc(C(=O)Nc2c(Br)cc(C(F)(C(F)(F)F)C(F)(F)F)cc2C(F)(F)F)c1F [Compound 9] | ≥ 90 | ≥ 90 | ≥ 90 | – | – | – | – | pest or weed control at 0.05 µg/mL [2, 4]: ≥ 90%; pest or weed control at 0.5 µg/mL [2, 5]: ≥ 90%; pest or weed control at 0.25 µg/mL [3]: ≥ 90%; pest or weed control at 0.5 µg/mL [3]: ≥ 90%
2 | N#CCCN(C(=O)c1ccc(F)cn1)c1cccc(C(=O)Nc2c(Br)cc(C(F)(C(F)(F)F)C(F)(F)F)cc2C(F)(F)F)c1F [Compound 2-4] | – | – | – | 33.3 | 63.3 | 90 | 100 | –
3 | N#CCCN(C(=O)c1cnccn1)c1cccc(C(=O)Nc2c(Br)cc(C(F)(C(F)(F)F)C(F)(F)F)cc2Br)c1F [CK1, reference compound] | – | – | – | – | – | 0 | 66.7 | Lethality rate (%, 3 days after the treatment) 1 mg/L [3, 10]: 0%; Lethality rate (%, 3 days after the treatment) 10 mg/L [3, 10]: 13.33%
4 | N#CCN(C(=O)c1ccc(F)nc1)c1cccc(C(=O)Nc2c(Br)cc(C(F)(C(F)(F)F)C(F)(F)F)cc2Br)c1F [Compound 1] | ≥ 90 | ≥ 90 | ≥ 90 | – | – | – | – | –
5 | N#CCN(C(=O)c1ccc(C(F)(F)F)nc1)c1cccc(C(=O)Nc2c(Br)cc(C(F)(C(F)(F)F)C(F)(F)F)cc2Br)c1F [Compound 17] | ≥ 90 | ≥ 90 | ≥ 90 | – | – | – | – | –
6 | N#CCCN(C(=O)c1ccc(C(F)(F)F)nc1)c1cccc(C(=O)Nc2c(Br)cc(C(F)(C(F)(F)F)C(F)(F)F)cc2C(F)(F)F)c1F [Compound 26] | ≥ 90 | ≥ 90 | ≥ 90 | 73.3 | 96.7 | 100 | 100 | pest or weed control at 0.5 µg/mL [2, 5]: ≥ 90%; pest or weed control at 0.25 µg/mL [3]: ≥ 90%; pest or weed control at 0.5 µg/mL [3]: ≥ 90%
7 | N#CCCCN(C(=O)c1ccc(F)nc1)c1cccc(C(=O)Nc2c(Br)cc(C(F)(C(F)(F)F)C(F)(F)F)cc2Br)c1F [Compound 3] | ≥ 90 | ≥ 90 | ≥ 90 | – | – | – | – | –
8 | N#CCCCCN(C(=O)c1ccc(C(F)(F)F)nc1)c1cccc(C(=O)Nc2c(I)cc(C(F)(C(F)(F)F)C(F)(F)F)cc2C(F)(F)F)c1F [Compound 32] | ≥ 90 | ≥ 90 | ≥ 90 | – | – | – | – | pest or weed control at 0.5 µg/mL [2, 5]: ≥ 90%; pest or weed control at 0.5 µg/mL [3]: ≥ 90%
9 | N#CCCCN(C(=O)c1ccc(F)nc1)c1cccc(C(=O)Nc2c(Br)cc(C(F)(C(F)(F)F)C(F)(F)F)cc2C(F)(F)F)c1F [Compound 11] | ≥ 90 | ≥ 90 | ≥ 90 | – | – | – | – | pest or weed control at 0.05 µg/mL [2, 4]: ≥ 90%; pest or weed control at 0.5 µg/mL [2, 5]: ≥ 90%; pest or weed control at 0.25 µg/mL [3]: ≥ 90%; pest or weed control at 0.5 µg/mL [3]: ≥ 90%
10 | N#CCCN(C(=O)c1ccc(Cl)nc1)c1cccc(C(=O)Nc2c(Br)cc(C(F)(C(F)(F)F)C(F)(F)F)cc2Br)c1F [Compound 1-1] | – | – | – | – | 6.67 | 50 | 93.3 | –
11 | N#CCCCCN(C(=O)c1ccc(F)nc1)c1cccc(C(=O)Nc2c(I)cc(C(F)(C(F)(F)F)C(F)(F)F)cc2C(F)(F)F)c1F [Compound 16] | ≥ 90 | ≥ 90 | ≥ 90 | – | – | – | – | pest or weed control at 0.05 µg/mL [2, 4]: ≥ 90%; pest or weed control at 0.5 µg/mL [2, 5]: ≥ 90%; pest or weed control at 0.25 µg/mL [3]: ≥ 90%; pest or weed control at 0.5 µg/mL [3]: ≥ 90%
12 | N#CCCN(C(=O)c1ccccn1)c1cccc(C(=O)Nc2c(Br)cc(C(F)(C(F)(F)F)C(F)(F)F)cc2Br)c1F [Compound 1-4] | – | – | – | – | – | 10 | 60 | –
13 | N#CCCN(C(=O)c1cnc(F)cn1)c1cccc(C(=O)Nc2c(Br)cc(C(F)(C(F)(F)F)C(F)(F)F)cc2C(F)(F)F)c1F [Compound 2-6] | – | – | – | 20 | 60 | 90 | 100 | –
14 | N#CCCN(C(=O)c1cnccn1)c1cccc(C(=O)Nc2c(Br)cc(C(F)(C(F)(F)F)C(F)(F)F)cc2C(F)(F)F)c1F [Compound 2-5] | – | – | – | 0 | 23.3 | 50 | 100 | Lethality rate (%, 3 days after the treatment) 0.5 mg/L ([3]; 0.5 mg/L, parallel comparison test, Table 6): 0%; Lethality rate (%, 3 days after the treatment) 1 mg/L [3, 10]: 23.33%; Lethality rate (%, 3 days after the treatment) 10 mg/L [3, 10]: 70%
15 | N#CCCN(C(=O)c1cccnc1)c1cccc(C(=O)Nc2c(Br)cc(C(F)(C(F)(F)F)C(F)(F)F)cc2Br)c1F [Compound 1-2] | – | – | – | – | 0 | 30 | 90 | Lethality rate (%, 3 days after the treatment) 1 mg/L [3, 10]: 0%; Lethality rate (%, 3 days after the treatment) 10 mg/L [3, 10]: 0%
16 | N#CCCN(C(=O)c1ccncc1)c1cccc(C(=O)Nc2c(Br)cc(C(F)(C(F)(F)F)C(F)(F)F)cc2C(F)(F)F)c1F [Compound 2-2] | – | – | – | 0 | 30 | 93.3 | 100 | –
17 | N#CCCN(C(=O)c1cnc(F)nc1)c1cccc(C(=O)Nc2c(Br)cc(C(F)(C(F)(F)F)C(F)(F)F)cc2Br)c1F [Compound 1-7] | – | – | – | 0 | 20 | 73.3 | 100 | –
18 | N#CCCN(C(=O)c1cnc(F)nc1)c1cccc(C(=O)Nc2c(Br)cc(C(F)(C(F)(F)F)C(F)(F)F)cc2C(F)(F)F)c1F [Compound 2-7] | – | – | – | 0 | 53.3 | 96.7 | 100 | –
19 | N#CCCN(C(=O)c1ccccn1)c1cccc(C(=O)Nc2c(Br)cc(C(F)(C(F)(F)F)C(F)(F)F)cc2C(F)(F)F)c1F [Compound 2-3] | – | – | – | 0 | 10 | 40 | 100 | –
20 | N#CCCN(C(=O)c1ccc(F)cn1)c1cccc(C(=O)Nc2c(Br)cc(C(F)(C(F)(F)F)C(F)(F)F)cc2Br)c1F [Compound 1-5] | – | – | – | 0 | 33.3 | 60 | 83.3 | –
21 | N#CCCN(C(=O)c1cnc(F)cn1)c1cccc(C(=O)Nc2c(Br)cc(C(F)(C(F)(F)F)C(F)(F)F)cc2Br)c1F [Compound 1-6] | – | – | – | 0 | 16.7 | 60 | 100 | –
22 | N#CCCN(C(=O)c1cccnc1)c1cccc(C(=O)Nc2c(Br)cc(C(F)(C(F)(F)F)C(F)(F)F)cc2C(F)(F)F)c1F [Compound 2-1] | – | – | – | 0 | 20 | 60 | 100 | –
23 | N#CCCN(C(=O)c1ccncc1)c1cccc(C(=O)Nc2c(Br)cc(C(F)(C(F)(F)F)C(F)(F)F)cc2Br)c1F [Compound 1-3] | – | – | – | 0 | 13.3 | 76.7 | 100 | –
